Experimental data reported in patent publication US20120115774A1, “ANTIMICROBIAL CATIONIC LIPO-BETA-PEPTIDES” (UNIVERSITY OF MANITOBA, priority 2009, published 2012).
In brackets after ≈: the same amount, converted by molar mass. Like-named read-outs stand apart in the source and are kept apart here.

What was measured:
S. aureus ATCC 29213 = format: cell-based, Staphylococcus aureus
Protocol: (§1) Antibacterial activity against Gram positive and Gram negative microorganisms was investigated via broth macrodilution tests using CLSI methodology (Zhanel et al., 2008). Stock solutions of lipopeptide antibiotics in water were brought to a standard 512 μg/mL, with only βC12-KLLK and βC16-KAAK requiring a minute amount of DMSO. Organisms were subcultured and isolated on blood agar, suspended in 3 mL of Mueller-Hinton broth at the turbidity of a […], and diluted to approximately 10^5 CFU/mL before introduction into tubes containing serially diluted lipopeptide antibiotic in Mueller-Hinton broth. Activity testing against S. pneumoniae used broth supplemented with laked horse blood to give 5% horse blood in experimental tubes. The turbidity resulting from lipopeptide solution in broth required the creation of control tubes lacking microbes serving as turbidity controls. All tubes were incubated overnight for 16-20 h at 37° C. Colony counts of diluted 10^5 CFU/mL solution of microorganism confirmed the validity of the trial with colony counts expected in the 10^5 CFU/mL range and also incubated overnight in a CO2 incubator at 37° C. and 5% CO2.

[1] = system: A. baumannii CAN-ICU 63169; format: cell-based, Acinetobacter baumannii
Protocol: as §1

E. faecium ATCC 27270 = format: cell-based, Enterococcus faecium
Protocol: as §1

S. pneumoniae ATCC 49619 = format: cell-based, Streptococcus pneumoniae
Protocol: as §1

E. faecalis ATCC 29212 = format: cell-based, Enterococcus faecalis
Protocol: as §1

[2] = system: S. maltophilia CAN-ICU 62584; format: cell-based, Stenotrophomonas maltophilia
Protocol: as §1

[3] = system: E. coli (Gentamicin resistant-Gent R) CAN-ICU 61714; format: cell-based
Protocol: as §1

E. coli ATCC 25922 = format: cell-based
Protocol: as §1

[4] = system: methicillin-resistant Staphylococcus epidermidis (MRSE) CAN-ICU 61589; format: cell-based
Protocol: as §1

[5] = system: methicillin-resistant Staphylococcus aureus (MRSA) ATCC 33592; format: cell-based
Protocol: as §1

[6] = system: E. coli (Amikacin MIC 32 μg/mL) CAN-ICU 63074; format: cell-based
Protocol: as §1

[7] = system: S. epidermidis ATCC 14990; format: cell-based, Staphylococcus epidermidis
Protocol: as §1

P. aeruginosa ATCC 27853 = format: cell-based, Pseudomonas aeruginosa
Protocol: as §1

[8] = system: P. aeruginosa (Gent-R) CAN-ICU 62308; format: cell-based, Pseudomonas aeruginosa
Protocol: as §1

[9] = system: E. coli (Amikacin MIC 32 μg/mL) CAN-ICU 63074; conditions: strain description, clinical isolate of CAN-ICU study; cited from earlier work
[10] = system: methicillin-resistant Staphylococcus epidermidis (MRSE) CAN-ICU 61589; conditions: strain description, clinical isolate of CAN-ICU study; cited from earlier work
K. pneumoniae ATCC 13883 = format: cell-based, Klebsiella pneumoniae; conditions: Mueller-Hinton broth, 16-20 h at 37° C.
Protocol: as §1

[11] = Gentamicin resistant-Gent R) CAN-ICU 61714
[12] = methicillin-resistant CAN-ICU 61589
[13] = Amikacin MIC 32 μg/mL) CAN-ICU 63074
[14] = Mueller-Hinton broth, 16-20 h at 37° C.

Row | Compound | MIC, S. aureus ATCC29213 (S. aureus ATCC 29213; ATCC 29213) [µg/mL] | MIC, A. baumannii CAN-ICU 63169 ([1]; CAN-ICU 63169) [µg/mL] | MIC, E. facium ATCC27270 (E. faecium ATCC 27270) [µg/mL] | MIC, S. pneumoniae ATCC49619 (S. pneumoniae ATCC 49619; ATCC 49619) [µg/mL] | MIC, E. faecalis ATCC29212 (E. faecalis ATCC 29212) [µg/mL] | MIC, S. maltophilia CAN-ICU 62584 ([2]; CAN-ICU 62584) [µg/mL] | MIC, E. coli CAN-ICU 61714 [3, 11] [µg/mL] | MIC, E. coli ATCC25922 (E. coli ATCC 25922; ATCC 25922) [µg/mL] | MIC, MRSE CAN-ICU 61589 [4, 12] [µg/mL] | MIC, MRSA ATCC33592 ([5]; ATCC 33592) [µg/mL] | MIC, E. coli CAN-ICU 63074 [6, 13] [µg/mL] | MIC, S. epidermidis ATCC14990 ([7]; ATCC 14990) [µg/mL] | MIC, P. aeruginosa ATCC27853 (P. aeruginosa ATCC 27853; ATCC 27853) [µg/mL] | MIC, P. aeruginosa CAN-ICU 62308 ([8]; Gent-R) CAN-ICU 62308) [µg/mL] | further results
1 | CCCCCCCCCCCC(=O)N[C@@H](CCCCN)CC(=O)N[C@H](CC(=O)N[C@H](CC(=O)N[C@@H](CCCCN)CC(N)=O)CC(C)C)CC(C)C [(β)C12-KLLK] | 32 (≈ 43.4 µM) | >128 | 32 (≈ 43.4 µM) | 128 (≈ 173 µM) | 64 (≈ 86.7 µM) | 256 (≈ 347 µM) | 64 (≈ 86.7 µM) | 64 (≈ 86.7 µM) | 32 (≈ 43.4 µM) | 32 (≈ 43.4 µM) | 64 (≈ 86.7 µM) | 16 (≈ 21.7 µM) | 128 (≈ 173 µM) | 128 (≈ 173 µM) | –
2 | CCCCCCCCCCCCCCCC(=O)N[C@@H](CCCCN)CC(=O)N[C@@H](C)CC(=O)N[C@@H](C)CC(=O)N[C@@H](CCCCN)CC(N)=O [(β)C16-KAAK] | 64 (≈ 90.1 µM) | 256 (≈ 361 µM) | 32 (≈ 45.1 µM) | >64 | 32 (≈ 45.1 µM) | >128 | 64 (≈ 90.1 µM) | 64 (≈ 90.1 µM) | 16 (≈ 22.5 µM) | 32 (≈ 45.1 µM) | 64 (≈ 90.1 µM) | 8 (≈ 11.3 µM) | 256 (≈ 361 µM) | 128 (≈ 180 µM) | –
3 | CCCCCCCCCCCCCCCC(=O)N[C@@H](CCCCN)CC(=O)NCCC(=O)NCCC(=O)N[C@@H](CCCCN)CC(N)=O [(β)C16-KGGK] | 16 (≈ 23.5 µM) | 128 (≈ 188 µM) | 32 (≈ 46.9 µM) | 128 (≈ 188 µM) | 32 (≈ 46.9 µM) | 256 (≈ 375 µM) | 32 (≈ 46.9 µM) | 32 (≈ 46.9 µM) | 16 (≈ 23.5 µM) | 32 (≈ 46.9 µM) | 32 (≈ 46.9 µM) | 8 (≈ 11.7 µM) | 64 (≈ 93.8 µM) | >64 | –
4 | CCCCCCCCCCCCCCCC(=O)N[C@@H](CCCCN)CC(=O)N[C@@H](CCCCN)CC(=O)N[C@@H](CCCCN)CC(=O)N[C@@H](CCCCN)CC(N)=O [(β)C16-KKKK] | 16 (≈ 19.4 µM) | 256 (≈ 311 µM) | 16 (≈ 19.4 µM) | 128 (≈ 155 µM) | 32 (≈ 38.8 µM) | 256 (≈ 311 µM) | 32 (≈ 38.8 µM) | 16 (≈ 19.4 µM) | 4 (≈ 4.85 µM) | 16 (≈ 19.4 µM) | 32 (≈ 38.8 µM) | 4 (≈ 4.85 µM) | 64 (≈ 77.6 µM) | 128 (≈ 155 µM) | –
5 | NCC[C@H](O)C(=O)N[C@@H]1C[C@H](N)[C@@H](O[C@H]2O[C@H](CN)[C@@H](O)[C@H](O)[C@H]2O)[C@H](O)[C@H]1O[C@H]1O[C@H](CO)[C@@H](O)[C@H](N)[C@H]1O [Amikacin] | – | – | – | – | – | – | – | – | – | – | – | – | – | – | Amikacin MIC of E. coli CAN-ICU 63074 [9]: 32 µg/mL
6 | Cc1nnc(SCC2=C(C(=O)O)N3C(=O)[C@@H](NC(=O)Cn4cnnn4)[C@H]3SC2)s1 [Cefazolin] | – | – | – | – | – | – | – | – | – | – | – | – | – | – | Cefazolin-CZ MIC of MRSE CAN-ICU 61589 [10]: > 32 µg/mL
7 | Gentamicin [reference compound] | – | – | – | – | – | – | – | – | – | – | – | – | – | – | MIC, S. aureus ATCC29213 (S. aureus ATCC 29213; [14]): 1 µg/mL; MIC, A. baumannii CAN-ICU 63169 [1, 14]: 128 µg/mL; MIC, S. pneumoniae ATCC49619 (S. pneumoniae ATCC 49619; broth supplemented with laked horse blood (5% horse blood), 16-20 h at 37° C.): 4 µg/mL; MIC, S. pneumoniae ATCC13883 (K. pneumoniae ATCC 13883): 0.25 µg/mL; MIC, S. maltophilia CAN-ICU 62584 [2, 14]: >512 µg/mL; MIC, E. coli CAN-ICU 61714 ([3]; Gentamicin resistant strain, Mueller-Hinton broth, 16-20 h at 37° C.): 128 µg/mL; MIC, E. coli ATCC25922 (E. coli ATCC 25922; [14]): 1 µg/mL; MIC, MRSE CAN-ICU 61589 [4, 14]: 32 µg/mL; MIC, MRSA ATCC33592 [5, 14]: 2 µg/mL; MIC, E. coli CAN-ICU 63074 [6, 14]: 8 µg/mL; MIC, S. epidermidis ATCC14990 [7, 14]: 0.25 µg/mL; MIC, P. aeruginosa ATCC27853 (P. aeruginosa ATCC 27853; [14]): 8 µg/mL; MIC, P. aeruginosa CAN-ICU 62308 ([8]; Gent-R strain, Mueller-Hinton broth, 16-20 h at 37° C.): 128 µg/mL
